Counter-ions that a name gives are not always drawn.
How the values were obtained:
neurons = experiment: Neuronal apoptosis (TUNEL) induced by conditioned medium of LPS-activated microglia; type: cell-based, Wistar rats; details: neurons pre-treated 4 h, then 4 h with supernatant of LPS + drug microglia (48 h)
Experimental: Given that physiologically, if any of the drugs enter the BBB, both the neurons and microglia will be exposed to them, we decided to study the synergistic effects (direct antioxidant properties in neurons with indirect anti-inflammatory effects in microglia) of the drugs in both cells. […] Representative confocal microscopy images of the apoptosis assay are shown in Supplementary Figure S2.
The apoptosis of neurons was determined using the DeadEnd™ Fluorometric TUNEL System (Promega Biotech Ibérica, Madrid, Spain) following the manufacturer’s instructions. Neurons were seeded on glass coverslips previously treated with 1 mg/mL of poly-L-lysine at a density of 500,000 cells/well. […] Then, the supernatants of 48 h LPS-treated or LPS + drug (at the same drug concentrations as in neurons) microglia cells were added to the neuronal culture and incubated for an additional 4 h. Apoptosis was determined using Leica TCS SP5 confocal microscopy and quantified using ImageJ software. For each experimental condition, five random fields were captured to count the number of positive fluorescent cells (apoptotic) divided by the total number of cells identified by the nuclear fluorescent staining TO-PRO. Each experiment was repeated three times.

[1] = system: nitric oxide (NO) production in microglia; experiment: Nitric oxide production (Griess Reagent System) in LPS-activated microglia; type: cell-based, murine; details: for lowest concentration inhibiting the production of NO: LPS-activated microglia
Experimental: (§1) DMF and MMF (both from Sigma-Aldrich, Saint Louis, MO, USA) were prepared as stock solutions in dimethyl sulfoxide (DMSO); CBD (Cayman chemical, Ann Arbor, MI, USA) was prepared in ethanol (EtOH). Lipopolysaccharide (LPS) from Escherichia coli 026:B6 in an aqueous solution (Thermo Fisher Scientific) was used as proinflammatory stimuli in microglia at a final concentration of 600 ng/mL. For the LPS experiments, the concentration of fetal bovine serum in the microglia culture medium was reduced to 0.1% immediately before drug treatment. All of the compounds were titrated in their respective vehicle and diluted into the culture media for cell treatments. The final concentration of vehicle (DMSO, EtOH or H2O) was consistent for all treated cells (0.2%).
The concentration of nitrites was measured as an indirect indicator of nitric oxide (NO) production in microglia by using the colorimetric assay Griess Reagent System (Promega Biotech Ibérica, Madrid, Spain). Microglial cells were seeded in 96-well plates, previously treated with 0.1 mg/mL of poly-L-lysine, at a density of 50,000 cells/well. […] The concentration of NO was quantified at a wavelength of 520 nm in an absorbance reader plate. Experiments were repeated three times, each condition in triplicate.

Nrf2 = Nrf2 nuclear translocation by immunofluorescence in microglia; type: cell-based, murine; details: for Nrf2 activation (nuclear translocation), result in words: 4 h, any tested concentration
Experimental: Primary hippocampal neurons were obtained from Wistar rats on embryonic day 18. Briefly, embryos were removed from the womb under sterile conditions and decapitated to dissect the brains. Hippocampi were isolated at 4 °C in Hank’s balanced salt solution (HBSS) without calcium and magnesium, supplemented with 10 mM HEPES buffered saline and 100 U/mL of penicillin-streptomycin. The hippocampi were mechanically disaggregated using fire-polished pipettes and plated for 2–4 h in neuronal plating medium composed of minimum essential medium (MEM) enriched with 0.6% D-glucose and 10% horse serum. Neuronal plating medium was replaced by neurobasal medium supplemented with 1X B-27 and 2 mM L-glutamine. Neurons were grown for 7 days prior to the experiments. For the microglial cells, we used the BV-2 immortalized murine cell line. Microglial cells were cultured in Dulbecco’s modified Eagle medium (DMEM) with 4.5 g/L D-glucose, 2 mM L-glutamine, 100 U/mL of penicillin-streptomycin, and 10% heat-inactivated fetal bovine serum. Cells were maintained at 37 °C in a humidified incubator with 5% CO2. All culture media were purchased from Thermo Fisher Scientific (Waltham, MA, USA).
For the immunofluorescence experiments, neurons and microglia were directly seeded on glass coverslips previously treated with 1 mg/mL of poly-L-lysine. […] After the drug treatments, the cells were fixed on ice with 4% paraformaldehyde for 25 min and then permeabilized and blocked using 0.1% Triton X-100 (10 min) and 5% BSA (30 min), respectively. Cells were then incubated overnight with the primary antibodies and 1% BSA at 4 °C. The primary antibodies anti-Nrf2 (ab1375550) and anti-NF-kB p65 (ab16502) (both from Abcam, Cambridge, United Kingdom) were used at 1:200. […] For each experimental condition, five random fields were captured and analyzed using ImageJ software (National Institutes of Health, Maryland, DC, USA). Activation of Nrf2 or NF-kB was defined as nuclear translocation, measured by the increase in the mean fluorescence intensity (MFI) in the nucleus. […]

NF-kB p65 = NF-kB p65 nuclear translocation by immunofluorescence in LPS-activated microglia; type: cell-based, murine; details: LPS + drug 30 min
Experimental: as §1, with “Lipopolysaccharide” for “DMF and MMF (both from Sigma-Aldrich, Saint Louis, MO, USA) were prepared as stock solutions in dimethyl sulfoxide (DMSO); CBD (Cayman chemical, Ann Arbor, MI, USA) was prepared in ethanol (EtOH). Lipopolysaccharide”
For the immunofluorescence experiments, neurons and microglia were directly seeded on glass coverslips previously treated with 1 mg/mL of poly-L-lysine. […] After the drug treatments, the cells were fixed on ice with 4% paraformaldehyde for 25 min and then permeabilized and blocked using 0.1% Triton X-100 (10 min) and 5% BSA (30 min), respectively. Cells were then incubated overnight with the primary antibodies and 1% BSA at 4 °C. The primary antibodies anti-Nrf2 (ab1375550) and anti-NF-kB p65 (ab16502) (both from Abcam, Cambridge, United Kingdom) were used at 1:200. After washing with PBS, cells were incubated with the fluorophore-conjugated secondary antibody anti-Rabbit IgG Alexa Fluor 488 (Thermo Fisher Scientific) at 1:500 for 1 h at room temperature. Cells were counterstained with the TO-PRO fluorescent dye (Thermo Fisher Scientific) to visualize the cell nuclei. Images were captured using the confocal microscope Leica TCS SP5 (Leica Microsystems, Wetzlar, Germany). For each experimental condition, five random fields were captured and analyzed using ImageJ software (National Institutes of Health, Maryland, DC, USA). Activation of Nrf2 or NF-kB was defined as nuclear translocation, measured by the increase in the mean fluorescence intensity (MFI) in the nucleus. Each experiment was repeated three times.

[2] = after oral intake of the therapeutic dose established for DMF; cited from earlier work

| Compound | effect on neuronal apoptosis, in words (neurons; 7 µM) | concentration of NO in the supernatant, in words ([1]; LPS + drug, 10 µM) | concentration of NO in the supernatant ([1]; LPS + drug, starting from 6 µM, all timepoints, LPS alone around 40 µM at 48 and 72 h) | lowest concentration inhibiting the production of NO [1] | Nrf2 activation (nuclear translocation), result in words (Nrf2) | effect on LPS-induced NF-kB p65 nuclear translocation, in words (NF-kB p65; 4 µM) | effect on LPS-induced NF-kB p65 nuclear translocation, in words (NF-kB p65; 6 µM) | effect on LPS-induced NF-kB p65 nuclear translocation, in words (NF-kB p65; CBD concentrations higher than 6 µM) | effect on neuronal apoptosis, in words (neurons; 10 µM) | effect on neuronal apoptosis, in words (neurons; 30 µM) | concentration of NO in the supernatant ([1]; LPS + drug, 48 and 72 h, all studied concentrations from 1 µM, LPS alone around 40 µM) | lowest concentration inducing nuclear translocation (activation) of Nrf2 (Nrf2; 4 h treatment, significant vs vehicle) | inhibition of NO production, in words ([1]; LPS + drug, 24 h) | inhibition of NO production vs LPS-treated cells, in words ([1]; LPS + drug, same concentrations as DMF (from 1 µM)) | concentration of MMF detected in the brain [2] | effect on LPS-induced NF-kB p65 nuclear translocation, in words (NF-kB p65; any of the studied concentrations) |
| --- | --- | --- | --- | --- | --- | --- | --- | --- | --- | --- | --- | --- | --- | --- | --- | --- |
| C=C(C)[C@@H]1CCC(C)=C[C@H]1c1c(O)cc(CCCCC)cc1O [CBD, cannabidiol] | prevented neuronal apoptosis | almost undetectable | below 10 µM | 6 µM | did not produce the activation of Nrf2 | inhibition of NF-kB p65 | inhibition of NF-kB p65 | this inhibition was not achieved |  |  |  |  |  |  |  |  |
| COC(=O)/C=C/C(=O)OC [DMF, Dimethyl fumarate] |  |  |  | ≤ 1 µM |  |  |  |  | significantly prevented neuronal apoptosis | not at 30 µM | around 20 µM | 10 µM |  |  |  |  |
| COC(=O)/C=C/C(=O)O [MMF, monomethyl fumarate] |  |  |  |  | did not observe Nrf2 activation |  |  |  | also prevented neuronal apoptosis | also protected neurons from apoptosis |  |  | significant NO inhibition | halving the concentrations of NO | approximately 100 µM | did not prevent the activation of NF-KB |

Source: paper PMC11642486 (International Journal of Molecular Sciences, 2024)
